Experimental data from the NIST ThermoML archive (doi:10.1016/j.jct.2018.05.008).

Assay: mn = molality of the nth substance listed, in mol/kg
Conditions: 101.3 kPa, Liquid, Vibrating tube method

C[C@@H](O)[C@H](N)C(=O)O [L-threonine] + O
mass density [kg/m3]
Conditions	m1 = 0.1926	m1 = 0.2858	m1 = 0.3869	m1 = 0.4789	m1 = 0.5872	m1 = 0.6687
288.15 K	1007.25	1011.08	1015.18	1018.78	1022.93	1026.01
298.15 K	1005.04	1008.79	1012.82	1016.36	1020.45	1023.46
308.15 K	1001.91	1005.62	1009.58	1013.09	1017.13	1020.1
310.15 K	1001.19	1004.89	1008.86	1012.35	1016.39	1019.34
318.15 K	998.01	1001.68	1005.6	1009.09	1013.09	1016.02

O [water] + C[C@@H](O)[C@H](N)C(=O)O
Conditions	mass density [kg/m3]
310.15 K, m2 = 0	993.32

O [water] + N[C@@H](CO)C(=O)O
m2 = 0
Conditions	mass density [kg/m3]
308.15 K	994.06
310.15 K	993.36

O [water] + NCC(=O)O
m2 = 0
Conditions	mass density [kg/m3]
308.15 K	994.07
310.15 K	993.37
318.15 K	990.26

NCC(=O)O [2-aminoacetic acid] + O
mass density [kg/m3]
Conditions	m1 = 0.0602	m1 = 0.1201	m1 = 0.1992	m1 = 0.3016	m1 = 0.3854	m1 = 0.4462	m1 = 0.5271	m1 = 0.6444	m1 = 0.7856
288.15 K	1001.04	1002.97	1005.49	1008.71	1011.3	1013.17	1015.62	1019.16	1023.32
298.15 K	998.98	1000.87	1003.34	1006.49	1009.02	1010.84	1013.23	1016.66	1020.69
308.15 K	995.95	997.8	1000.22	1003.32	1005.82	1007.61	1009.97	1013.36	1017.38
310.15 K	995.25	997.1	999.51	1002.59	1005.07	1006.86	1009.22	1012.6	1016.6
318.15 K	992.13	993.97	–	999.45	1001.91	1003.69	1006.03	1009.41	1013.42

O [water] + C[C@H](N)C(=O)O
m2 = 0
Conditions	mass density [kg/m3]
308.15 K	994.08
310.15 K	993.38
318.15 K	990.27

CCC(N)C(=O)O (stereo not drawn) [(.+-.)-α-aminobutyric acid] + O
mass density [kg/m3]
Conditions	m1 = 0.2006	m1 = 0.4945	m1 = 0.5944	m1 = 0.6791	m1 = 0.7812	m1 = 0.8868	m1 = 0.9902
288.15 K	1004.67	1012.46	1015	1017.13	1019.67	1022.24	1024.71
298.15 K	1002.5	1010.14	1012.62	1014.71	1017.19	1019.71	1022.13
308.15 K	999.41	1006.94	1009.38	1011.44	1013.88	1016.36	1018.74
310.15 K	998.69	1006.2	1008.64	1010.69	1013.12	1015.6	1017.97
318.15 K	995.55	1003.01	1005.46	1007.5	1009.85	1012.32	1014.68

N[C@@H](CO)C(=O)O [L-serine] + O
mass density [kg/m3]
Conditions	m1 = 0.0489	m1 = 0.104	m1 = 0.2	m1 = 0.292	m1 = 0.3911	m1 = 0.471	m1 = 0.5884	m1 = 0.6788	m1 = 0.7168
288.15 K	1001.29	1003.76	1008.02	1012.04	1016.28	1019.63	1024.47	1028.16	1029.64
298.15 K	999.22	1001.64	1005.81	1009.76	1013.93	1017.22	1021.98	1025.59	1027.05
308.15 K	996.21	998.6	1002.72	1006.6	1010.72	1013.95	1018.62	1022.22	1023.66
310.15 K	995.5	997.89	1002	1005.88	1009.98	1013.21	1017.85	1021.44	1022.88
318.15 K	992.38	994.75	998.83	1002.65	1006.72	1009.93	1014.6	1018.12	1019.57

C[C@H](N)C(=O)O [(S)-2-aminopropanoic acid] + O
mass density [kg/m3]
Conditions	m1 = 0.0522	m1 = 0.1036	m1 = 0.2032	m1 = 0.3122	m1 = 0.3941	m1 = 0.4964	m1 = 0.5873	m1 = 0.6752	m1 = 0.791
288.15 K	1000.63	1002.12	1004.98	1008.03	1010.29	1013.01	1015.47	1017.77	1020.75
298.15 K	998.58	1000.04	1002.84	1005.84	1008.05	1010.78	1013.15	1015.38	1018.3
308.15 K	995.56	997	999.75	1002.71	1004.9	1007.59	1009.93	1012.15	1015.04
310.15 K	994.85	996.28	999.03	1001.99	1004.18	1006.87	1009.2	1011.4	1014.3
318.15 K	991.74	993.17	995.9	998.84	1001	1003.68	1006.01	1008.22	1011.1

O [water] + CCCCn1cc[n+](C)c1.[Br-]
m2 = 0
Conditions	mass density [kg/m3]
308.15 K	994.07
310.15 K	993.37
318.15 K	990.26

CCCCn1cc[n+](C)c1.[Br-] [1-butyl-3-methylimidazolium bromide] + O
mass density [kg/m3]
Conditions	288.15 K	298.15 K	308.15 K	310.15 K	318.15 K
m1 = 0.0493	1001.53	999.41	996.35	995.63	992.48
m1 = 0.0509	1001.61	999.52	996.47	995.75	992.61
m1 = 0.0513	1001.57	999.46	996.38	995.68	992.51
m1 = 0.0518	1001.67	999.57	996.52	995.81	992.66
m1 = 0.0557	1001.85	999.75	996.69	995.98	992.83
m1 = 0.1002	1003.91	1001.72	998.61	997.87	994.63
m1 = 0.1004	1004.02	1001.86	998.75	998.04	994.69
m1 = 0.101	1004.05	1001.87	998.72	998	994.83
m1 = 0.1073	1004.38	1002.22	999.1	998.38	995.11
m1 = 0.1133	1005.08	1002.9	999.78	999.06	995.72
m1 = 0.1957	1008.66	1006.35	1003.13	1002.38	999.01
m1 = 0.2009	1008.82	1006.51	1003.27	1002.54	999.26
m1 = 0.201	1008.91	1006.62	1003.37	1002.65	999.35
m1 = 0.2016	1009.08	1006.79	1003.57	1002.83	999.57
m1 = 0.2345	1010.39	1008.06	1004.81	1004.05	1000.65
m1 = 0.2633	1012.6	1010.24	1006.95	1006.2	1002.9
m1 = 0.2918	1013.08	1010.67	1007.36	1006.6	1003.16
m1 = 0.2964	1013.29	1010.87	1007.54	1006.76	1003.29
m1 = 0.2981	1013.19	1010.75	1007.42	1006.65	1003.33
m1 = 0.3007	1013.75	1011.3	1007.96	1007.19	1003.81

O [water] + CCC(N)C(=O)O
Conditions	mass density [kg/m3]
310.15 K, m2 = 0	993.32
